Tests used:
[1] = Recrystallization of melatonin on cooling in food-grade solvents; format: physicochemical; conditions: dissolved by heating then cooled
Source text: During research of the dissolvable strip 100, several food-grade solvents were identified having a sufficient solubility of melatonin including glycerin, ethanol, oleic acid, and propylene glycol. When heated, each of these solvents is capable of dissolving crystalized melatonin. […] Whereas, as noted above, glycerin incorporates well into the strip 100 at levels up to about 2% to 5%, is compatible with the lipid shell 124, and prevents recrystallization of the melatonin contained by the lipid shell 124.

[2] = Dissolution of melatonin in liquid glycerin; format: physicochemical; conditions: at least 250 mg melatonin per milliliter glycerin
Experimental: At block 304, the method 300 includes combining melatonin with liquid glycerin, which is also termed glycerol and/or glycerine. The melatonin may be dry and/or powered, and is typically in a crystalized state. As noted above, in an exemplary embodiment, at least 250 mg of melatonin is added per milliliter of glycerin.
Next, at block 308 of the method 300, the melatonin and glycerin mixture is heated to approximately 76.6° C. (170° F.). Moreover, in some embodiments, the melatonin and glycerin mixture is stirred during the heating process.
As shown in block 404, first the method 400 includes mixing melatonin with liquid glycerin. The melatonin may be dry and/or powered, and is typically in a crystalized state. As noted above, in an exemplary embodiment, at least 250 mg of melatonin is added per milliliter of glycerin.
Next, at block 408 of the method 400, the melatonin and glycerin mixture is heated to approximately 76.6° C. (170° F.). Moreover, in some embodiments, the melatonin and glycerin mixture is stirred during the heating process.

[3] = cited from earlier work
CYP1A2 = target: T1, CYP1A2 (Homo sapiens, UniProt P05177); conditions: in vivo; cited from earlier work
T1 sequence (P05177 1-516): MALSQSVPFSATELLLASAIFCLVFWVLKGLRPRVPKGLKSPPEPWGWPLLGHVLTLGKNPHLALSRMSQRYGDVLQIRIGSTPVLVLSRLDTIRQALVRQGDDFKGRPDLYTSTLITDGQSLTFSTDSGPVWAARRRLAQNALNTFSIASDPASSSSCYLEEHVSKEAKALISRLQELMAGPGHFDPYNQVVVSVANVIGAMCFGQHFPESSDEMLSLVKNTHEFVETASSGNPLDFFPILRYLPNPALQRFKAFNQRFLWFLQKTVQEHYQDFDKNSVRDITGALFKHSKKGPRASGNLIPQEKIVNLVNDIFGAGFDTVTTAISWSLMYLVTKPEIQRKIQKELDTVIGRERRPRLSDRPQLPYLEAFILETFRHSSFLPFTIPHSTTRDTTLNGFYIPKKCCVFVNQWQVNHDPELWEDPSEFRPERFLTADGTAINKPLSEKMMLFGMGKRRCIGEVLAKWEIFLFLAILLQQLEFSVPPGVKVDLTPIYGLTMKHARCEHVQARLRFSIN

[4] = taken orally in pill form or capsule form; cited from earlier work

Compound	recrystallization of melatonin when cooled ([1]; solvent ethanol)	recrystallization of melatonin when cooled ([1]; solvent liquid glycerin)	recrystallization of melatonin when cooled ([1]; solvent oleic acid)	recrystallization of melatonin when cooled ([1]; solvent propylene glycol)	dissolution of melatonin in glycerin ([2]; heated to approximately 76.6° C. and stirred)	dissolution of melatonin in glycerin ([2]; room temperature (25° C.))	solubility in water [3]	melatonin in the blood removed during each pass through the liver (CYP1A2)	melatonin removed from the bloodstream by liver and kidneys (CYP1A2)	fraction absorbed into the body [4]
COc1ccc2[nH]cc(CCNC(C)=O)c2c1 [melatonin, N-acetyl-5-methoxy tryptamine]	recrystallized	recrystallized in each of the solvents except for the liquid glycerin	recrystallized	recrystallized	all of the melatonin dissolves	only a portion of the melatonin dissolves	only slightly soluble in water	30%-50%	30-50%	
COc1ccc2[nH]cc(CCNC(C)=O)c2c1 [non-solubilized melatonin]										about 15%

From patent US20220280422A1 (Innovation for Success, LLC, priority 2021, published 2022)
